Assay results as given in publication PMC7588595, “Small-molecule active pharmaceutical ingredients of approved cancer therapeutics inhibit human aspartate/asparagine-β-hydroxylase” (Bioorganic & Medicinal Chemistry, 2020).

Target: T1, human AspH (His6-AspH315–758) (Homo sapiens, UniProt Q12797)
T1 construct: N-Terminally His6-tagged human AspH315–758 (His6-AspH315–758) was produced in Escherichia coli BL21 (DE3) cells; made in house; host or cells: Escherichia coli BL21 (DE3), pET-28a(+) vector
T1 sequence (Q12797 315-758): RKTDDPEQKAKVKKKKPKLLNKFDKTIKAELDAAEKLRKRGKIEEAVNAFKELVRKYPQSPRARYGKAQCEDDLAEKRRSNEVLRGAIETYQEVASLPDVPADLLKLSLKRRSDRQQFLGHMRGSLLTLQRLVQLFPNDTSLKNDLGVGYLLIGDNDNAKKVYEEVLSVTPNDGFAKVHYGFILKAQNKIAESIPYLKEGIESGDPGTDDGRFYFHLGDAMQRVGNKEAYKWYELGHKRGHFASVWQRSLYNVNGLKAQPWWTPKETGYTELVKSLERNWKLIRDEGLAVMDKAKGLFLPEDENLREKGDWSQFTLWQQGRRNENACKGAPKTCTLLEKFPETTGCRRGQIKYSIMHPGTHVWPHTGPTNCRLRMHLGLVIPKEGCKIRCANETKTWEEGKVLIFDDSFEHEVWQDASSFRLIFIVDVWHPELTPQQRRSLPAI
Experiment: SPE-MS AspH inhibition assay (hFX-CP101-119 substrate hydroxylation)
Type: biochemical
Settings: AspH-inhibitor screening; for Plate 1 (% inhibition): 384-well Plate 1; for Plate 1 (% conversion): 384-well Plate 1, substrate conversion; for Plate 1-duplicate (% conversion): substrate conversion

Row | SMILES | Plate 1 (% inhibition) [%] | Plate 1 (% conversion) [%] | Plate 1-duplicate (% inhibition) [%] | Plate 1-duplicate (% conversion) [%]
1 | Cn1cc(C[C@@H](N)C(=O)O)c2ccccc21 [1-methyl-D-tryptophan, 95%] | 6.32 | 46.83 | 9.06 | 47.55
2 | COc1cc2c(cc1O)CC[C@@H]1[C@@H]2CC[C@]2(C)[C@@H](O)CC[C@@H]12 [2-methoxyestradiol (Panzem)] | 5.63 | 47.15 | 3.64 | 50.24
3 | CC/C(=C(\c1ccc(O)cc1)c1ccc(OCCN(C)C)cc1)c1ccccc1 [4-hydroxytamoxifen] | -45.98 | 70.98 | -42.66 | 73.20
4 | C=CCNC1=C2C[C@@H](C)C[C@H](OC)[C@H](O)[C@@H](C)/C=C(\C)[C@H](OC(N)=O)[C@@H](OC)/C=C\C=C(/C)C(=O)NC(=CC1=O)C2=O [17-AAG (Tanespimycin, Geldanamycin)] | -8.89 | 53.86 | -13.53 | 58.75
5 | CO[C@H]1/C=C\C=C(/C)C(=O)NC2=CC(=O)C(NCCN(C)C)=C(C[C@@H](C)C[C@H](OC)[C@H](O)[C@@H](C)/C=C(\C)[C@@H]1OC(N)=O)C2=O [17-DMAG (Alvespimycin)] | -4.95 | 52.04 | -6.36 | 55.19
6 | COc1cc(O)c2c(c1)/C=C/C[C@H](O)[C@H](O)C(=O)/C=C\C[C@H](C)OC2=O [(5Z)-7-Oxozeaenol] | 21.38 | 39.88 | 23.66 | 40.31
7 | C[C@@H](C(=O)O)c1ccc(-c2ccccc2)c(F)c1 [(R)-Flurbiprofen (Tarenflurbil)] | 10.59 | 44.86 | 16.18 | 44.01
8 | CC1(C)CCC(c2ccc(Cl)cc2)=C(CN2CCN(c3ccc(C(=O)NS(=O)(=O)c4ccc(N[C@H](CCN5CCOCC5)CSc5ccccc5)c(S(=O)(=O)C(F)(F)F)c4)cc3)CC2)C1 [ABT-263 (Navitoclax)] | 90.19 | 8.10 | 90.05 | 7.38
9 | COc1ccc(S(=O)(=O)Nc2cccnc2Nc2ccc(O)cc2)cc1 [ABT-751] | 4.88 | 47.50 | 8.62 | 47.77
10 | Cc1ccc(F)c(NC(=O)Nc2ccc(-c3cccc4[nH]nc(N)c34)cc2)c1 [ABT-869_Linifanib] | 24.64 | 38.37 | 34.65 | 34.86
11 | C[C@]1(c2nc3c(C(N)=O)cccc3[nH]2)CCCN1 [ABT-888 (Veliparib)] | 6.01 | 46.97 | 4.15 | 49.98
12 | CC(C)(C)c1cc(NC(=O)Nc2ccc(-c3cn4c(n3)sc3cc(OCCN5CCOCC5)ccc34)cc2)no1 [AC220_Quizartinib] | -19.26 | 58.64 | -18.68 | 61.31
13 | Cc1ccc(C(=O)Nc2ccc(CN3CCN(C)CC3)c(C(F)(F)F)c2)cc1C#Cc1cnc2cccnn12 [AP24534 (Ponatinib)] | -64.76 | 79.66 | -35.27 | 69.54
14 | CCN(CCO)CCCOc1ccc2c(Nc3cc(CC(=O)Nc4cccc(F)c4)[nH]n3)ncnc2c1 [AZD1152-HQPA] | 1.19 | 49.20 | 0.26 | 51.91
15 | NCCCNCCSP(=O)(O)O [Amifostine] | 3.65 | 48.06 | 5.75 | 49.19
16 | CCC1(c2ccc(N)cc2)CCC(=O)NC1=O (stereo not shown) [Aminoglutethimide] | 11.22 | 44.57 | 9.40 | 47.38

Continued, values first:

Row | Plate 1 (% inhibition) [%] | Plate 1 (% conversion) [%] | Plate 1-duplicate (% inhibition) [%] | Plate 1-duplicate (% conversion) [%] | SMILES
17 | 17.02 | 41.89 | 9.37 | 47.39 | CNCc1ccc(-c2[nH]c3cc(F)cc4c3c2CCNC4=O)cc1 [AG-014699_Rucaparib]
18 | -6.95 | 52.96 | -13.62 | 58.79 | O=C1NC(=O)[C@@H](c2cn3c4c(cccc24)CCC3)[C@@H]1c1c[nH]c2ccccc12 [ARQ 197_Tivantinib]
19 | -1.29 | 50.34 | 1.23 | 51.43 | Cn1cnc2c(F)c(Nc3ccc(Br)cc3F)c(C(=O)NOCCO)cc21 [ARRY-162_MEK-162]
20 | 12.00 | 44.21 | 9.34 | 47.41 | O=C(NC[C@H](O)CO)c1ccncc1Nc1ccc(I)cc1F [AS703026_Pimasertib]
21 | -0.09 | 49.79 | 2.46 | 50.82 | O=C(Nc1c[nH]nc1-c1nc2ccc(CN3CCOCC3)cc2[nH]1)NC1CC1 [AT9283]
22 | 3.10 | 48.32 | -2.44 | 53.25 | CN[C@@H](C)C(=O)N[C@H]1CN(C(=O)CC(C)C)CC[C@H]2CC[C@@H](C(=O)NC(c3ccccc3)c3ccccc3)N2C1=O [AT-406]
23 | 11.01 | 44.66 | 0.70 | 51.69 | COc1cc2nccc(Oc3ccc(NC(=O)Nc4cc(C)on4)c(Cl)c3)c2cc1OC [AV-951 (Tivozanib)]
24 | -7.04 | 53.00 | -8.24 | 56.13 | CC[C@H](CC#N)OC(=O)N[C@@H](C)c1cccc(NC(=O)Nc2ccc(-c3cnco3)c(OC)c2)c1 [AVN944]
25 | -0.12 | 49.81 | 6.11 | 49.01 | Cc1cc(Nc2nc(N[C@@H](C)c3ncc(F)cn3)ncc2Cl)n[nH]1 [AZD1480]
26 | 7.73 | 46.18 | 4.94 | 49.59 | CNC(=O)c1cccc(-c2ccc3c(N4CCOC[C@@H]4C)nc(N4CCOC[C@@H]4C)nc3n2)c1 [AZD2014]
27 | 5.13 | 47.38 | 5.57 | 49.28 | Cn1cnc2c(F)c(Nc3ccc(Br)cc3Cl)c(C(=O)NOCCO)cc21 [AZD6244 (Selumetinib)]
28 | 0.34 | 49.59 | 4.92 | 49.60 | COc1ccc(-c2ccc3c(N4CCOC[C@@H]4C)nc(N4CCOC[C@@H]4C)nc3n2)cc1CO [AZD8055]
29 | 14.30 | 43.15 | 4.66 | 49.73 | Cl.NC(=O)Nc1cc(-c2cccc(F)c2)sc1C(=O)N[C@H]1CCCNC1 [AZD 7762 hydrochloride]
30 | 1.80 | 48.92 | 1.40 | 51.35 | C[C@]12CC[C@H](O)CC1=CC[C@@H]1[C@@H]2CC[C@]2(C)C(c3cccnc3)=CC[C@@H]12 [Abiraterone]
31 | 8.67 | 45.75 | 10.50 | 46.84 | CN(Cc1cnc2nc(N)nc(N)c2n1)c1ccc(C(=O)N[C@@H](CCC(=O)O)C(=O)O)cc1 [Abitrexate/Methotrexate]
32 | -0.39 | 49.93 | 8.49 | 47.83 | CCc1cc2c(cc1N1CCC(N3CCOCC3)CC1)C(C)(C)c1[nH]c3cc(C#N)ccc3c1C2=O [Alectinib]
33 | -0.61 | 50.03 | 4.67 | 49.73 | Oc1ncnc2[nH]ncc12 [Allopurinol]
34 | 3.32 | 48.22 | 13.59 | 45.30 | CN(C)c1nc(N(C)C)nc(N(C)C)n1 [Altretamine]
